Structures can show the parent of a compound that is named as a salt.

This test addresses human LOXL2 (Homo sapiens (Human), UniProt Q9Y4K0). As to the kind of experiment: Human LOXL2 amine oxidase activity assay (Amplex Red). The class given is biochemical. The note with it: concentrated conditioned media from CHO cells stably expressing human LOXL2; 2 h at 37° C. with compound; DAP substrate. On the procedure:
Example B-1: Human LOXL2 Amine Oxidase Activity Assay
LOXL2 amine oxidase activity is evaluated by measuring Amplex Red fluorescence using 10-20× concentrated conditioned media from CHO cells stably expressing human LOXL2. To assay for amine oxidase activity, 10 μL of the concentrated conditioned media is incubated with 2 μL of test compound in DMSO and 73 μL Assay Buffer (50 mM Borate Buffer, pH8) for 2 h at 37° C. After the 2 h incubation, 5 ul of 10 mM 1,5-Diaminopentane (DAP) diluted in Assay Buffer and 10 μl of Amplex Red Mix (8.5 μl Assay Buffer+0.5 μl of 10 mM Amplex Red+1 μl of 500 U/ml Horseradish Peroxidase) are added and the plate mixed and immediately placed on the FlexStaion for fluorescence measurements. Fluorescence is read in kinetic mode every 2 min for 1 hour at excitation=544 and emission=590. The amine oxidase activity is calculated from the slope of the linear portion of the curve.

Sequence of human LOXL2 (Q9Y4K0 26-774): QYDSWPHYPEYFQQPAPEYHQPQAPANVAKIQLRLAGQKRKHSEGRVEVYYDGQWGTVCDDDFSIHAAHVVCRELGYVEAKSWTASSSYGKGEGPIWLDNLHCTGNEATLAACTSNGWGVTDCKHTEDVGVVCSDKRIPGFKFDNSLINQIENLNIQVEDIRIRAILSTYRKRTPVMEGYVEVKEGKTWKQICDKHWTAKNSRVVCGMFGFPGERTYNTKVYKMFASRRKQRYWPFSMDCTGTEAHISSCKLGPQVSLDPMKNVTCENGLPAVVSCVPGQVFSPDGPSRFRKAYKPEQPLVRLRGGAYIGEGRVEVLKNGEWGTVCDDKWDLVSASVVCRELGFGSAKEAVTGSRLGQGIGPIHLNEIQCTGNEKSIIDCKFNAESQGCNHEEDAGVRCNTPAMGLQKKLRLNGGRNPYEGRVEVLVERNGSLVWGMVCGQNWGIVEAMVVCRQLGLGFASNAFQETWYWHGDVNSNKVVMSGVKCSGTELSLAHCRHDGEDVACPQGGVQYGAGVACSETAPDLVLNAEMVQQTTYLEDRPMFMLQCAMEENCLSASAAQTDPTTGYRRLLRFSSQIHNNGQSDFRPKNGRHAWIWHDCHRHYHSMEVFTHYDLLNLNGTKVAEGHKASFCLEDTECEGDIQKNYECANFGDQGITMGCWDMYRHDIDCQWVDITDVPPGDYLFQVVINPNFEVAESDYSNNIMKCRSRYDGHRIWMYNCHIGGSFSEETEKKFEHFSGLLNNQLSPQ

By IC50 is commonly meant the point on the concentration scale where inhibition reaches its midpoint. Turning to `C#CCCCCNC(=O)c1cccc(Oc2cc(CN)cc(C(F)(F)F)n2)c1` [Compound 1-216, 3-((4-(Aminomethyl)-6-(trifluoromethyl)pyridin-2-yl)oxy)-N-(hex-5-yn-1-yl)benzamide trifluoroacetate], the IC50 is less than 300 nM.

For the molecule `NCc1cc(Oc2cccc3c2ccn3CC(=O)N2CCCCC2)nc(C(F)(F)F)c1` [Compound 1-56, 2-(4-((4-(Aminomethyl)-6-(trifluoromethyl)pyridin-2-yl)oxy)-1H-indol-1-yl)-1-(piperidin-1-yl)ethanone], the IC50 was 300 to 1000 nM. `CS(=O)(=O)CCNC(=O)c1cccc(CNc2cc(CN)cc(C(F)(F)F)n2)c1` [Compound 1-106, 3-(((4-(Aminomethyl)-6-(trifluoromethyl)pyridin-2-yl)amino)methyl)-N-(2-(methylsulfonyl)ethyl)benzamide hydrochloride]: the IC50 was less than 300 nM.

Take `NCc1cc(NCc2cccc(C(=O)Nc3ccccc3)c2)nc(C(F)(F)F)c1` [Compound 1-105, 3-(((4-(Aminomethyl)-6-(trifluoromethyl)pyridin-2-yl)amino)methyl)-N-phenylbenzamide hydrochloride]: the IC50 was less than 300 nM. To `COC(=O)c1cccc(C(=O)Nc2cc(CN)cc(C(F)(F)F)n2)c1` [Compound 1-238, Methyl 3-((4-(aminomethyl)-6-(trifluoromethyl)pyridin-2-yl)carbamoyl)benzoate trifluoroacetate] belongs less than 300 nM.

With `N#CCCNC(=O)c1cccc(Oc2cc(CN)cc(C(F)(F)F)n2)c1` [Compound 1-198, 3-((4-(Aminomethyl)-6-(trifluoromethyl)pyridin-2-yl)oxy)-N-(2-cyanoethyl)benzamide hydrochloride], the IC50 was less than 300 nM. Take `N=C(N)NC(=O)Cn1ccc2c(Oc3cc(CN)cc(C(F)(F)F)n3)cccc21` [Compound 1-234, 2-(4-((4-(Aminomethyl)-6-(trifluoromethyl)pyridin-2-yl)oxy)-1H-indol-1-yl)-N-carbamimidoylacetamide dihydrochloride]: the IC50 was greater than 1000 nM. `CN(C(=O)Cn1ccc2c(Oc3cc(CN)cc(C(F)(F)F)n3)cccc21)c1ccccc1` [Compound 1-38, 2-(4-((4-(Aminomethyl)-6-(trifluoromethyl)pyridin-2-yl)oxy)-1H-indol-1-yl)-N-methyl-N-phenylacetamide hydrochloride]: the half-inhibitory concentration (IC50) was less than 300 nM.

With `Cc1cc(=O)n(Cc2cc(CN)cc(C(F)(F)F)n2)c(=O)n1Cc1ccccc1` [Compound 1-134, 3-((4-(Aminomethyl)-6-(trifluoromethyl)pyridin-2-yl)methyl)-1-benzyl-6-methylpyrimidine-2,4(1H,3H)-dione hydrochloride], the IC50 was less than 300 nM.

With `NCc1cc(Oc2cccc3c2ccn3CC(=O)N2CCNCC2)nc(C(F)(F)F)c1` [Compound 1-233, 2-(4-((4-(Aminomethyl)-6-(trifluoromethyl)pyridin-2-yl)oxy)-1H-indol-1-yl)-1-(piperazin-1-yl)ethan-1-one dihydrochloride], the IC50 was in the range of 300 to 1000 nM. For the molecule `C#C[C@H](CC(=O)O)NC(=O)c1cccc(Oc2cc(CN)cc(C(F)(F)F)n2)c1` [Compound 1-221, (S)-3-(3-((4-(aminomethyl)-6-(trifluoromethyl)pyridin-2-yl)oxy)benzamido)pent-4-ynoic acid], the IC50 is 300 to 1000 nM. On to `NCc1cc(Oc2cccc(C(=O)N3CCC[C@@H]3C(=O)O)c2)nc(C(F)(F)F)c1` [Compound 1-25, (R)-1-(3-((4-(Aminomethyl)-6-(trifluoromethyl)pyridin-2-yl)oxy)benzoyl)pyrrolidine-2-carboxylic acid hydrochloride], for which the IC50 lay within 300 to 1000 nM.

As for `Cc1cc(=O)oc2cc(NC(=O)c3cccc(Oc4cc(CN)cc(C(F)(F)F)n4)c3)ccc12` [Compound 1-249, 3-((4-(Aminomethyl)-6-(trifluoromethyl)pyridin-2-yl)oxy)-N-(4-methyl-2-oxo-2H-chromen-7-yl)benzamide hydrochloride], the half-maximal inhibitory concentration (IC50) is less than 300 nM.
